From patent US5567692A, “9-[(substituted glycyl) amido)]-6-demethyl-6-deoxytetracyclines” (priority 1995, dated 1996)
Counter-ions that a name gives are not always drawn. Like-named read-outs stand apart in the source and are kept apart here.

How the values were obtained:
Format in all cases: cell-based
E. coli UBMS 88-1 Tet B = assay: microbe, parasite or virus in culture; conditions: Escherichia coli, UBMS881TETB, 18 h
[1] = tested on: S. hemolyticus AVHAH 88-3; assay: MIC, agar dilution; conditions: Streptococcus pyogenes, AVHAH883, 18 h
[2] = tested on: S. aureus UBMS 90-2 Tet M; assay: microbe, parasite or virus in culture; conditions: Staphylococcus aureus, UBMS902TETM, 18 h
[3] = tested on: S. aureus UBMS 88-5 Tet M; assay: microbe, parasite or virus in culture; conditions: Staphylococcus aureus, UBMS885TETM, 18 h
E. coli J2175 = assay: MIC, agar dilution; conditions: Escherichia coli, 18 h, read-out: MIC
[4] = tested on: E. coli MC 4100 Tet sens.; assay: MIC, agar dilution; conditions: Escherichia coli, 18 h
S. aureus UBMS 90-3 = assay: MIC, agar dilution; conditions: Staphylococcus aureus, UBMS903, 18 h
S. aureus UBMS 88-4 = assay: MIC, agar dilution; conditions: Staphylococcus aureus, UBMS884, 18 h
Enterococcus 12201 = assay: MIC, agar dilution; conditions: Enterococcus, 12201, 18 h
[5] = tested on: S. aureus UBMS 88-7 Tet K; assay: microbe, parasite or virus in culture; conditions: Staphylococcus aureus, UBMS887TETK, 18 h
[6] = tested on: S. aureus UBMS 90-1 Tet M; assay: microbe, parasite or virus in culture; conditions: Staphylococcus aureus, UBMS901TETM, 18 h
E. coli J3272 Tet D = assay: microbe, parasite or virus in culture; conditions: Escherichia coli, J3272TETD, 18 h
S. aureus IVES 2943 = assay: MIC, agar dilution; conditions: Staphylococcus aureus, IVES2943, 18 h
S. marcescens FPOR 8733 = assay: MIC, agar dilution; conditions: Serratia marcescens, FPOR8733, 18 h
E. coli UBMS 90-4 Tet M = assay: microbe, parasite or virus in culture; conditions: Escherichia coli, UBMS904TETM, 18 h
S. aureus ROSE (MP) = assay: MIC, agar dilution; conditions: Staphylococcus aureus, 18 h
E. coli UBMS 89-1 Tet M = assay: microbe, parasite or virus in culture; conditions: Escherichia coli, UBMS891TETM, 18 h
E. coli #311 (MP) = assay: MIC, agar dilution; conditions: Escherichia coli, 18 h
S. aureus SMITH (MP) = assay: MIC, agar dilution; conditions: Staphylococcus aureus, 18 h
S. aureus NEMC 8769 = assay: MIC, agar dilution
E. coli J3272 Tet C = assay: microbe, parasite or virus in culture; conditions: Escherichia coli, J3272TETC, 18 h
E. faecalis ATCC 29212 = assay: MIC, agar dilution; conditions: Enterococcus faecalis, ATCC29212, 18 h
E. coli PRP1 Tet A = assay: microbe, parasite or virus in culture; conditions: Escherichia coli, PRP1TETA, 18 h
S. aureus ATCC 29213 = assay: MIC, agar dilution; conditions: Staphylococcus aureus, ATCC29213, 18 h, S. aureus ATCC 29213
[7] = tested on: X. maltophilia NEMC 87210; assay: MIC, agar dilution; conditions: Stenotrophomonas maltophilia, NEMC87210, 18 h
E. coli BAJ9003 IMP MUT = assay: microbe, parasite or virus in culture; conditions: Escherichia coli, BAJ9003IMPMUT, 18 h
E. coli ATCC 25922 = assay: MIC, agar dilution; conditions: Escherichia coli, ATCC25922, 18 h
E. coli UBMS 90-5 = assay: microbe, parasite or virus in culture; conditions: Escherichia coli, UBMS905, 18 h, E. coli UBMS 90-5; read-out: MIC
[8] = tested on: Ps. aeruginosa ATCC 27853; assay: MIC, agar dilution; conditions: Pseudomonas aeruginosa, ATCC27853, 18 h
S. aureus IVES 1983 = assay: MIC, agar dilution; conditions: Staphylococcus aureus, IVES1983, 18 h
[9] = tested on: E. coli MC 4100 TNIOC Tet B; assay: microbe, parasite or virus in culture; conditions: Escherichia coli, 18 h
[10] = tested on: E. coli UBMS 89-2 Tet sens.; assay: MIC, agar dilution; conditions: Escherichia coli, 18 h
[11] = Enterococcus 12201, read-out: MIC
[12] = S. aureus IVES 2943, read-out: MIC
[13] = S. aureus SMITH (MP), read-out: MIC
[14] = Ps. aeruginosa ATCC 27853, read-out: MIC
[15] = Staphylococcus aureus, NEMC8769, 18 h, read-out: MIC
[16] = E. faecalis ATCC 29212, read-out: MIC
[17] = S. aureus UBMS 90-3, read-out: MIC
[18] = Staphylococcus aureus, NEMC8769, 18 h

Row | SMILES | MIC (E. coli UBMS 88-1 Tet B) | MIC [1] | MIC [2] | MIC [3] | MIC (E. coli J2175) | MIC [4] | MIC (S. aureus UBMS 88-4) | MIC [5] | MIC [6] | MIC (E. coli J3272 Tet D) | MIC (S. marcescens FPOR 8733) | MIC (E. coli UBMS 90-4 Tet M) | MIC (E. coli UBMS 89-1 Tet M) | MIC (E. coli #311 (MP)) | MIC (E. coli J3272 Tet C) | MIC (E. coli PRP1 Tet A) | MIC (E. coli BAJ9003 IMP MUT) | MIC (E. coli UBMS 90-5) | MIC [9] | MIC [10] | further results
1 | CC1CCN(CC(=O)Nc2ccc3c(c2O)C(=O)C2=C(O)[C@]4(O)C(=O)C(C(N)=O)=C(O)[C@@H](N(C)C)C4CC2C3)CC1 (stereo partly drawn) [A, [7S-(7alpha,10aalpha)]-N-(9-(Aminocarbonyl)-7-(dimethylamino)-5,5a,6,6a,7,10,10a,12-octahydro-1,8,10a,11-tetrahydroxy-10,12-dioxo-2-naphthacenyl]-4-methyl-1-piperidineacetamide dihydrochloride] | 1 µg/mL | 2 µg/mL | 0.5 µg/mL | 0.5 µg/mL | 0.5 µg/mL | 0.25 µg/mL | 0.5 µg/mL | 1 µg/mL | 1 µg/mL | 0.25 µg/mL | 8 µg/mL | 0.5 µg/mL | 0.25 µg/mL | 0.25 µg/mL | 1 µg/mL | 1 µg/mL | 0.12 µg/mL | 0.5 µg/mL | 1 µg/mL | 0.5 µg/mL | MIC (S. aureus UBMS 90-3): 0.5 µg/mL; MIC (Enterococcus 12201; [11]): 0.5 µg/mL; MIC (S. aureus IVES 2943; [12]): 0.5 µg/mL; MIC (S. aureus ROSE (MP); read-out: MIC): 2 µg/mL; MIC (S. aureus SMITH (MP); [13]): 0.5 µg/mL; MIC (S. aureus NEMC 8769): no growth; MIC (E. faecalis ATCC 29212): 0.25 µg/mL; MIC (S. aureus ATCC 29213; read-out: MIC): 0.5 µg/mL; MIC ([7]; X. maltophilia NEMC 87210, read-out: MIC): 0.5 µg/mL; MIC (E. coli ATCC 25922; read-out: MIC): 0.25 µg/mL; MIC [8, 14]: > 32 µg/mL; MIC (S. aureus IVES 1983): 1 µg/mL
2 | CN(C)[C@@H]1C(O)=C(C(N)=O)C(=O)[C@@]2(O)C(O)=C3C(=O)c4c(ccc(NC(=O)CN5CCCCC5)c4O)CC3CC12 (stereo partly drawn) [I, [7S-(7alpha,10aalpha)]-N-9-(Aminocarbonyl)-7-(dimethylamino)-5,5a,6,6a,7,10,10a,12-octahydro-1,8,10a,11-tetrahydroxy-10,12-dioxo-1-piperidineacetamide dihydrochloride] | 1 µg/mL | – | 0.25 µg/mL | 0.5 µg/mL | 0.5 µg/mL | 0.25 µg/mL | 0.5 µg/mL | 0.5 µg/mL | 0.5 µg/mL | 0.5 µg/mL | 8 µg/mL | 0.5 µg/mL | 0.25 µg/mL | 0.5 µg/mL | 1 µg/mL | 1 µg/mL | 0.12 µg/mL | 0.5 µg/mL | 1 µg/mL | 0.5 µg/mL | MIC ([1]; S. hemolyticus AVHAH 88-3, read-out: MIC): 2 µg/mL; MIC (S. aureus UBMS 90-3): 0.25 µg/mL; MIC (Enterococcus 12201): 0.25 µg/mL; MIC (S. aureus IVES 2943): 1 µg/mL; MIC (S. aureus ROSE (MP); read-out: MIC): 4 µg/mL; MIC (S. aureus SMITH (MP)): 0.25 µg/mL; MIC (S. aureus NEMC 8769; [15]): 0.5 µg/mL; MIC (E. faecalis ATCC 29212; [16]): 0.25 µg/mL; MIC (S. aureus ATCC 29213; read-out: MIC): 0.5 µg/mL; MIC [7]: 0.5 µg/mL; MIC (E. coli ATCC 25922): 0.5 µg/mL; MIC [8, 14]: > 32 µg/mL; MIC (S. aureus IVES 1983): 1 µg/mL
3 | CC(C(=O)Nc1ccc2c(c1O)C(=O)C1=C(O)[C@]3(O)C(=O)C(C(N)=O)=C(O)[C@@H](N(C)C)C3CC1C2)N(C)C (stereo partly drawn) [B, [4S-(4alpha,12aalpha)]-4-(Dimethylamino)-9-[[2-(dimethylamino)-1-oxopropyl]amino]-1,4,4a,5,5a,6,11,12a-octahydro-3,10,12,12a-tetrahydroxy-1,11-dioxo-2-naphthacenecarboxamide dihydrochloride] | 1 µg/mL | 1 µg/mL | 0.25 µg/mL | 0.5 µg/mL | 1 µg/mL | 0.25 µg/mL | 0.25 µg/mL | 1 µg/mL | 0.5 µg/mL | 0.5 µg/mL | 8 µg/mL | 0.5 µg/mL | 0.5 µg/mL | 0.5 µg/mL | 1 µg/mL | 2 µg/mL | 0.25 µg/mL | 0.5 µg/mL | 0.5 µg/mL | 1 µg/mL | MIC (S. aureus UBMS 90-3; [17]): 0.06 µg/mL; MIC (Enterococcus 12201): 0.25 µg/mL; MIC (S. aureus IVES 2943; [12]): 1 µg/mL; MIC (S. aureus ROSE (MP)): 4 µg/mL; MIC (S. aureus SMITH (MP)): 0.25 µg/mL; MIC (S. aureus NEMC 8769; [15]): 0.06 µg/mL; MIC (E. faecalis ATCC 29212; [16]): 0.25 µg/mL; MIC (S. aureus ATCC 29213; read-out: MIC): 0.25 µg/mL; MIC [7]: 2 µg/mL; MIC (E. coli ATCC 25922): 0.5 µg/mL; MIC [8, 14]: 32 µg/mL; MIC (S. aureus IVES 1983; S. aureus IVES 1983, read-out: MIC): 1 µg/mL
4 | CCNCC(=O)Nc1ccc2c(c1O)C(=O)C1=C(O)[C@]3(O)C(=O)C(C(N)=O)=C(O)[C@@H](N(C)C)C3CC1C2 (stereo partly drawn) [E, [4S-(4alpha,12aalpha)]-4-(Dimethylamino)-9-[[(ethylamino)acetyl]amino]-1,4,4a,5,5a,6,11,12a-octahydro-3,10,12,12a-tetrahydroxy-1,11-dioxo-2-naphthacenecarboxamide dihydrochloride] | 0.5 µg/mL | 1 µg/mL | – | 0.5 µg/mL | 0.5 µg/mL | 0.25 µg/mL | 0.5 µg/mL | 8 µg/mL | 0.5 µg/mL | 0.25 µg/mL | – | 0.25 µg/mL | 0.25 µg/mL | 0.5 µg/mL | 1 µg/mL | 2 µg/mL | 0.12 µg/mL | 0.5 µg/mL | 1 µg/mL | 0.5 µg/mL | MIC ([2]; S. aureus UBMS 90-2 Tet M): 0.12 µg/mL; MIC (S. aureus UBMS 90-3; S. aureus UBMS 90-3): 0.12 µg/mL; MIC (Enterococcus 12201; [11]): 0.25 µg/mL; MIC (S. aureus IVES 2943): 16 µg/mL; MIC (S. marcescens FPOR 8733; read-out: MIC): 4 µg/mL; MIC (S. aureus ROSE (MP)): > 32 µg/mL; MIC (S. aureus SMITH (MP); [13]): 0.25 µg/mL; MIC (S. aureus NEMC 8769; [18]): 0.12 µg/mL; MIC (E. faecalis ATCC 29212): 0.25 µg/mL; MIC (S. aureus ATCC 29213): 0.5 µg/mL; MIC [7]: 8 µg/mL; MIC (E. coli ATCC 25922; read-out: MIC): 0.25 µg/mL; MIC [8]: 16 µg/mL; MIC (S. aureus IVES 1983): 8 µg/mL
5 | CN(C)[C@@H]1C(O)=C(C(N)=O)C(=O)[C@@]2(O)C(O)=C3C(=O)c4c(ccc(NC(=O)CNCc5ccccn5)c4O)CC3CC12 (stereo partly drawn) [N, [4S-(4alpha,12aalpha)]-4-(Dimethylamino)-1,4,4a,5,5a,6,11,12a-octahydro-3,10,12,12a-tetrahydroxy-1,11-dioxo-9-[[[(2-pyridinylmethyl]amino]acetyl]amino]-2-naphthacenecarboxamide dihydrochloride] | > 32 µg/mL | > 32 µg/mL | 8 µg/mL | 8 µg/mL | > 32 µg/mL | 8 µg/mL | 8 µg/mL | > 32 µg/mL | 8 µg/mL | 32 µg/mL | > 32 µg/mL | 16 µg/mL | 16 µg/mL | 32 µg/mL | > 32 µg/mL | 32 µg/mL | 2 µg/mL | 32 µg/mL | 32 µg/mL | 32 µg/mL | MIC (S. aureus UBMS 90-3; [17]): 4 µg/mL; MIC (Enterococcus 12201): 8 µg/mL; MIC (S. aureus IVES 2943): > 32 µg/mL; MIC (S. aureus ROSE (MP)): > 32 µg/mL; MIC (S. aureus SMITH (MP); [13]): 4 µg/mL; MIC (S. aureus NEMC 8769; [18]): 8 µg/mL; MIC (E. faecalis ATCC 29212; [16]): 4 µg/mL; MIC (S. aureus ATCC 29213): 8 µg/mL; MIC [7]: > 32 µg/mL; MIC (E. coli ATCC 25922): 32 µg/mL; MIC [8]: > 32 µg/mL; MIC (S. aureus IVES 1983): > 32 µg/mL
